Active and inactive are the calls of the source.
Key:
[1] = molecular target: T1, fMet-Leu-Phe receptor (Homo sapiens, UniProt P21462); experiment: formyl peptide receptor binders – dose response (AID 519); type: functional
T1 sequence (P21462 whole entry): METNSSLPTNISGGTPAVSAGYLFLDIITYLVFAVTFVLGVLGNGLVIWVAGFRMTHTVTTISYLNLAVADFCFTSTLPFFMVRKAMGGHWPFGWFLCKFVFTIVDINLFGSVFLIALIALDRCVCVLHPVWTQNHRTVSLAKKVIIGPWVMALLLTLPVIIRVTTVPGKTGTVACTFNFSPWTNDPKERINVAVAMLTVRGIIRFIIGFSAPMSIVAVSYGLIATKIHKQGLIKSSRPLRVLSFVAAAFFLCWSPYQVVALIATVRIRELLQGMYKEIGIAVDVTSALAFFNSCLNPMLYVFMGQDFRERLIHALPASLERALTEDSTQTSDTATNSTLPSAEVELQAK

[2] = potency of ADAM10 substrate cleavage blockers – biochemical, QFRET, dose response (AID 743254);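 further: ADAM10 enzyme with the DM2 quenched FRET peptide as substrate; EDANS fluorescence gain as the protease cuts the substrate; inhibitor potency against ADAM10 proteolytic activity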
[3] = molecular target: T2, Disintegrin and metalloproteinase domain-containing protein 17 (Homo sapiens, UniProt P78536); experiment: inhibition of ADAM17 substrate cleavage – biochemical, quenched FRET substrate, counter-screen for ADAM10 exosite inhibitor project, dose response (AID 743253)
[4] = molecular target: 72 kDa type IV collagenase (Homo sapiens, UniProt P08253); experiment: Dose Response validation of uHTS RPN11 inhibitor hits using a MMP-2 Fluorescence assay.; type: functional
[5] = cells; type: functional, cell-based
[6] = molecular target: T2, Disintegrin and metalloproteinase domain-containing protein 17; experiment: exosite inhibitors of ADAM17, dose response, biochemical (AID 743260)
[7] = cells; type: functional, cell-based; remark: listed apart in the source
[8] = molecular target: 26S proteasome non-ATPase regulatory subunit 14 (Homo sapiens, UniProt O00487); experiment: inhibition of proteasome subunit RPN11 – biochemical, fluorescence polarization, uHTS hits, confirmation (AID 602368); type: functional
[9] = molecular target: Prothrombin (Bos taurus, UniProt P00735); experiment: thrombin protease inhibitors – biochemical, fluorescence polarization, uHTS hits, dose response (AID 602369); type: functional
[10] = cytotoxicity toward Colo320 cells – cell-based, CellTiter-Glo luminescence, IC50, dose response (AID 1117334); type: functional; details: COLO 320
[11] = SNU-C1 cell viability reduction, dose response, CellTiter-Glo luminescence (AID 1117323); type: functional, cell-based
[12] = CellTiter-Glo luminescence survival assay, SW480 colon tumor line, concentration-response curve, half-maximal inhibitory concentration (AID 1117338); type: functional
[13] = cytotoxicity toward HT-29 cells – cell-based, CellTiter-Glo luminescence, IC50, dose response (AID 1117330); type: functional
[14] = HCT116 cell viability decrease, GSK3B pretreatment – CellTiter-Glo, IC50, dose response (AID 1117339); type: functional; details: HCT-116
[15] = Reduced DLD-1 viability, concentration-response, CellTiter-Glo luminescence (AID 1117352); type: functional
[16] = rise of 4N DNA cells, HeLa – IC50, dose response (AID 1117351); type: functional, cell-based
[17] = cytotoxicity toward HCT116 cells – cell-based, CellTiter-Glo luminescence, IC50, dose response (AID 1117332); type: functional; details: HCT-116
[18] = rise of 2N DNA cells, HeLa – IC50, dose response (AID 1117349); type: functional, cell-based
[19] = RKO cell viability reduction, dose response, CellTiter-Glo luminescence (AID 1117322); type: functional
[20] = molecular target: T3, Mannose-6-phosphate isomerase (Homo sapiens, UniProt P34949); experiment: MPI inhibition at elevated mannose 6-phosphate – biochemical, fluorescence intensity, high mannose 6-phosphate, primary screen (AID 1220)
T3 sequence (P34949 whole entry): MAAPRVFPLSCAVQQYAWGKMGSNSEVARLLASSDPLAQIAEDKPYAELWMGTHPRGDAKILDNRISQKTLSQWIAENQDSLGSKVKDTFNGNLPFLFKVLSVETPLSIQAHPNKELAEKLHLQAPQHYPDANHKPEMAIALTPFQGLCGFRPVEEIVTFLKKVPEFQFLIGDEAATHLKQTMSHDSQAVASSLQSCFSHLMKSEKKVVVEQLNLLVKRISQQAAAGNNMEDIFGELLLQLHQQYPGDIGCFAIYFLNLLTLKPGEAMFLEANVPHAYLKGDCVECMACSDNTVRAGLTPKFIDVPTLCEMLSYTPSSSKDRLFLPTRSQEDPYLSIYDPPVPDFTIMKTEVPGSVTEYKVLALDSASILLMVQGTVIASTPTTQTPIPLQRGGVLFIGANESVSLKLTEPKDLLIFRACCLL

[21] = molecular target: T3, Mannose-6-phosphate isomerase; experiment: MPI enzyme activity inhibition – biochemical, fluorescence intensity, coupled assay, primary screen (AID 1209)

T2 sequence (P78536 whole entry, the tested form may be a part): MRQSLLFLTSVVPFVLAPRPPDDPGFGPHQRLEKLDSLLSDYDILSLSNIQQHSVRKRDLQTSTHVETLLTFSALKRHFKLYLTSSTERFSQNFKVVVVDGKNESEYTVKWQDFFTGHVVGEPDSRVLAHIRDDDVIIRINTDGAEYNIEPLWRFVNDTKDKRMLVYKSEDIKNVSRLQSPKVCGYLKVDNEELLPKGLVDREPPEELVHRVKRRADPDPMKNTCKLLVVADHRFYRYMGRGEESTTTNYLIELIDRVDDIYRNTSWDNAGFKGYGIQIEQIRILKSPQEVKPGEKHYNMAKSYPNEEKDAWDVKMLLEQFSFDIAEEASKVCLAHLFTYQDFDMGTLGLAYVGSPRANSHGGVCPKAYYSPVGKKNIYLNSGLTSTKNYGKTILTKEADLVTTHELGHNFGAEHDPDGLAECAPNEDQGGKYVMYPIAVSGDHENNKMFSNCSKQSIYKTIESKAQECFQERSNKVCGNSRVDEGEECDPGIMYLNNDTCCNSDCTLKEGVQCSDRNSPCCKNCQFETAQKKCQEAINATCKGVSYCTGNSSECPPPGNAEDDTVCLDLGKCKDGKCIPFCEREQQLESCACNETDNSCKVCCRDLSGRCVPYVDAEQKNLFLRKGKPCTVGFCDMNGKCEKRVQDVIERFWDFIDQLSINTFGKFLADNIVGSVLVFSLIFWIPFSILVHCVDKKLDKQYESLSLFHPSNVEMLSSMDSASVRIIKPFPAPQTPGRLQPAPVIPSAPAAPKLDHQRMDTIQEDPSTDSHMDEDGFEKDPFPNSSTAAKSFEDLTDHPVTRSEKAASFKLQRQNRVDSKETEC
Chain of 72 kDa type IV collagenase (P08253 whole entry): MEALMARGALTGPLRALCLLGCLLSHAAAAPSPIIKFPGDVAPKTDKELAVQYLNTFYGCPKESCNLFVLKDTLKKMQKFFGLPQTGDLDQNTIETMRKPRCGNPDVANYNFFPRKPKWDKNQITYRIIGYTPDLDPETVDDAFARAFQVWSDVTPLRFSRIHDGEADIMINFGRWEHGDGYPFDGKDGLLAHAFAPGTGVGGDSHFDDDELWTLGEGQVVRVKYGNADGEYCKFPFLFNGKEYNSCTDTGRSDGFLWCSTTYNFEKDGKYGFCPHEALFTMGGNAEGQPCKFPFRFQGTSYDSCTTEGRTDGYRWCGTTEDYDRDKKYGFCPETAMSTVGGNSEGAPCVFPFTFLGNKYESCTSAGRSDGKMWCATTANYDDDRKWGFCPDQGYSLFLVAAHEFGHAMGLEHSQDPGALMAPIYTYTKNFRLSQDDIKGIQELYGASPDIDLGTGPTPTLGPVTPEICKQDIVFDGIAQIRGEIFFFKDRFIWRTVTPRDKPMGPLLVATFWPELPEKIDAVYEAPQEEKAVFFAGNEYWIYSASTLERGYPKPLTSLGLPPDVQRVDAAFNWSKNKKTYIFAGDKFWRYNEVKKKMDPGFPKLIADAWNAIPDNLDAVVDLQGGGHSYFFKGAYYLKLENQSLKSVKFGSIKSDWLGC
Chain of 26S proteasome non-ATPase regulatory subunit 14 (O00487 whole entry): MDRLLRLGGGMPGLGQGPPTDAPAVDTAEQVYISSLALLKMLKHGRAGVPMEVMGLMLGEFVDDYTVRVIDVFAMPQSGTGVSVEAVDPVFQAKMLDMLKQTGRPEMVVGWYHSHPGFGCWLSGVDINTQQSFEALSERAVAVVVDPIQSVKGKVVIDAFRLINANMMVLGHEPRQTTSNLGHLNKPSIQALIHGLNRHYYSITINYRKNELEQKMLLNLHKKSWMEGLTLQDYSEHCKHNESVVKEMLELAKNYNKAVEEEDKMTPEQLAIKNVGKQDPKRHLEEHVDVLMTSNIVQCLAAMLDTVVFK

With COC(=O)c1ccc(C2C(C(=O)c3ccc(OC)cc3)=C(O)C(=O)N2Cc2ccco2)cc1 (configuration not stated) as the compound, how does the Ki [1] read?
Its Ki is 43 µM (inactive).

What does the source list for C=CC[C@@H](CC(=O)N(CCO)Cc1ccccc1)C(=O)N[C@H](COC(=O)[C@@H](CC=C)Cc1ccc(F)cc1)Cc1c[nH]c2ccccc12?
IC50 [2]: > 69.5 µM (inactive); IC50 [3]: > 69.5 µM (inactive)

For COCC/N=c1\scc(-c2cc(OC)c(OC)c(OC)c2)n1/N=C/c1c(C)[nH]c2ccccc12, which IC50 [2] is on record?
Its IC50 is > 69.5 µM (inactive).

And the IC50 [4]?
Its IC50 is > 100 µM (inactive).

What about the EC50 [5] of the same compound?
The EC50 was > 350 µM (not active).

What about the IC50 [6] of the same compound?
The IC50 was > 69.5 µM (inactive).

What about the EC50 [7] of the same compound?
The EC50 was > 350 µM (not active).

And the IC50 [3]?
The IC50 was > 69.5 µM (inactive).

And the IC50 [8]?
Its IC50 is 76.9 µM (active).

What about the IC50 [9] of the same compound?
Its IC50 is 57.9 µM (active).

Which IC50 [10] does the source give for O[C@@H](CNC[C@H](O)[C@H]1CCc2cc(F)ccc2O1)[C@@H]1CCc2cc(F)ccc2O1 here?
Its IC50 is > 20 µM (inactive).

What about the IC50 [11] of the same compound?
The IC50 was 5.09 µM (inactive).

And the IC50 [12]?
The IC50 was 3.6 µM (active).

And the IC50 [13]?
Its IC50 is 4.5 µM (active).

And the IC50 [14]?
Its IC50 is 2.4 µM (active).

What about the IC50 [15] of the same compound?
Its IC50 is 15.3 µM (inactive).

What about the IC50 [16] of the same compound?
Its IC50 is > 10 µM (inactive).

What about the IC50 [17] of the same compound?
The IC50 was 6.48 µM (inactive).

What about the IC50 [18] of the same compound?
Its IC50 is > 10 µM (inactive).

And the IC50 [19]?
Its IC50 is 3.28 µM (active).

With CCc1ccc(/C=c2\s/c(=C\C(=O)C(C)(C)C)[nH]c2=O)cc1 as the compound, how does the IC50 [2] read?
Its IC50 is > 69.5 µM (inactive).

What about the IC50 [3] of the same compound?
Its IC50 is > 69.5 µM (inactive).

For CCOc1ccc(/C=N/c2cccc3ncccc23)cc1, which IC50 [20] is on record?
Its IC50 is > 50 µM (not active).

What about the IC50 [21] of the same compound?
The IC50 was > 50 µM (not active).

Which IC50 [16] does the source give for Cc1ccccc1C(=O)Nc1ccc(C(=O)N2CCCC(N(C)C)c3ccccc32)cc1 (configuration not stated) [MOZAVAPTAN] here?
Its IC50 is > 10 µM (inactive).

What about the IC50 [18] of the same compound?
The IC50 was > 10 µM (inactive).

From ChEMBL document CHEMBL1201862, “PubChem BioAssay data set” (2004)
